Laboratory results: the NIST ThermoML archive (doi:10.1021/je5010824)

How the values were obtained:
[1] = Liquid; for mass density: 298.15 K, 101.33 kPa, Vibrating tube method; for vapor or sublimation pressure: Ebulliometric method (Recirculating still)
[2] = refractive index (Na D-line) (dimensionless); settings: 298.15 K; 101.33 kPa; Liquid; Standard Abbe refractometry

CCC(O)CO (centres undefined) [1,2-butanediol]
Settings	mass density [kg/m3]	refractive index
[1]	998.78	–
[2]	–	1.4378

[1]
Settings	vapor or sublimation pressure [kPa]
392.06 K	5.62
397.24 K	7.21
402.31 K	8.86
405.41 K	10
406.54 K	10.62
412.23 K	13.56
417.66 K	16.89
422.15 K	20
422.48 K	20.34
427.21 K	24.45
432.29 K	29.56
437.41 K	35.54
440.83 K	40
442.77 K	41.92
447.52 K	50.54
452.13 K	58.86
457.24 K	69.36
462.57 K	81.92
466.64 K	92.78
469.71 K	101.3

OCCO [1,2-ethanediol]
[1]
Settings	vapor or sublimation pressure [kPa]
406.1 K	10
423.29 K	20
442.17 K	40
470.4 K	101.3

Settings	refractive index
[2]	1.431

CC(O)CO (centres undefined) [1,2-propanediol]
Settings	mass density [kg/m3]	refractive index
[1]	1031.9	–
[2]	–	1.432

[1]
Settings	vapor or sublimation pressure [kPa]
398.25 K	10
398.26 K	10
414.88 K	20
433.22 K	40
460.69 K	101.3
